Data reported in patent US8492515B2 (priority 2008, dated 2013).
Square brackets hold non-standard residues; d marks the D form. Peptide text beside a SMILES is read from it. Ac6c = NC1(C(=O)O)CCCCC1

Test system: Escherichia coli 5770
Experiment: Mouse survival after last dose, systemic infection model without cisplatin pretreatment
Type: in vivo
Procedure: The survival rate and the dynamics of survival of mice after the last dose of an antibacterial peptide treatment (12 hours post-infection) were measured in a mouse model of Escherichia coli 5770 systemic infection. In this particular study, the animals were not pretreated with cisplatin. Ten animals were used in each group. […] In the control (infected, non-treated) and the imipenem treated rows, the first numbers reflect the number of surviving animals on the day of assay measuring the efficacy of the Chex1-Arg20 and the second numbers are the surviving control animals on the day of the A3-APO efficacy assay.

CC(C)C[C@H](NC(=O)[C@H](Cc1ccc(O)cc1)NC(=O)[C@@H]1CCCN1C(=O)[C@H](CCCNC(=N)N)NC(=O)[C@@H]1CCCN1C(=O)[C@H](CCCCN)NC(=O)[C@H](CC(=O)O)NC(=O)[C@@H]1CCCN1C(=O)[C@H](CCCNC(=N)N)NC(=O)C1(N)CCCCC1)C(=O)N1CCC[C@H]1C(=O)N[C@@H](CCCNC(=N)N)C(=O)N1CCC[C@H]1C(=O)N[C@@H](CCCNC(=N)N)C(=O)N1CCC[C@H]1C(=O)N1CCC[C@H]1C(=O)N[C@@H](CCCNC(=N)N)C(=O)N1CCC[C@H]1C(=O)N[C@H](C(=O)N[C@@H](CCCNC(=N)N)C(=O)O)C(C)C [Chex1-Arg20, Chex-Arg-Pro-Asp-Lys-Pro-Arg-Pro-Tyr-Leu-Pro-Arg-Pro-Arg--Pro-Pro-Arg-Pro-Val-Arg] (H-[Ac6c]RPDKPRPYLPRPRPPRPVR-OH; N-terminus and C-terminus assumed)
number of surviving mice (10 animals each) (2.5 mg/kg, 0 h after last dose): 10 | number of surviving mice (10 animals each) (2.5 mg/kg, 3 h after last dose): 7/7 | number of surviving mice (10 animals each) (2.5 mg/kg, 6 h after last dose): 7 | number of surviving mice (10 animals each) (2.5 mg/kg, 9 h after last dose): 5 | number of surviving mice (10 animals each) (2.5 mg/kg, 12 h after last dose): 4 | number of surviving mice (10 animals each) (5 mg/kg, 0 h after last dose): 9 | number of surviving mice (10 animals each) (5 mg/kg, 3 h after last dose): 9 | number of surviving mice (10 animals each) (5 mg/kg, 6 h after last dose): 8 | number of surviving mice (10 animals each) (5 mg/kg, 9 h after last dose): 6 | number of surviving mice (10 animals each) (5 mg/kg, 12 h after last dose): 5 | number of surviving mice (10 animals each) (10 mg/kg, 0 h after last dose): 10 | number of surviving mice (10 animals each) (10 mg/kg, 3 h after last dose): 10 | number of surviving mice (10 animals each) (10 mg/kg, 6 h after last dose): 10 | number of surviving mice (10 animals each) (10 mg/kg, 9 h after last dose): 9 | number of surviving mice (10 animals each) (10 mg/kg, 12 h after last dose): 5
